According to the supplement of paper PMC10307832:

How the values were obtained:
Assay in all cases: relative viability (nuclei count vs DMSO), 5 days (fraction); higher = more cells survive
[1] = compound: C[C@@H](Oc1cc(-c2cnn(C3CCNCC3)c2)cnc1N)c1c(Cl)ccc(F)c1Cl [Crizotinib] + O=C(c1cc(Cc2n[nH]c(=O)c3ccccc23)ccc1F)N1CCN(C(=O)C2CC2)CC1 [Olaparib] (partner 8 µM)
Procedure, shortened: (§1)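 Lung cancer cell lines were seeded in 1536-well plates and dosed by pin tool the next day, with either a single drug or a fixed anchor-drug dose combined with five library-drug doses (not always all listed) spaced in √10 steps. Five days later, one step fixed the cells and stained their nuclei (final 0.05% Triton X-100, 1% formaldehyde, 1 ug/ml Hoechst), and nuclei were counted on 4× images. Relative viability is the nuclei count in treated wells divided by the count in vehicle wells, and each value is the median of duplicate plates.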

[2] = compound: C[C@@H](Oc1cc(-c2cnn(C3CCNCC3)c2)cnc1N)c1c(Cl)ccc(F)c1Cl [Crizotinib] + NC(=O)Nc1cc(-c2cccc(F)c2)sc1C(=O)N[C@H]1CCCNC1 [AZD7762] (partner 0.2 µM)
Procedure, shortened: as §1

[3] = compound: O=C(c1cc(Cc2n[nH]c(=O)c3ccccc23)ccc1F)N1CCN(C(=O)C2CC2)CC1 [Olaparib] + Nc1nc2[nH]cc(CCc3ccc(C(=O)N[C@@H](CCC(=O)O)C(=O)O)cc3)c2c(=O)[nH]1 [Pemetrexed] (partner 0.2 µM)
Procedure, shortened: as §1

[4] = compound: O=C(c1cc(Cc2n[nH]c(=O)c3ccccc23)ccc1F)N1CCN(C(=O)C2CC2)CC1 [Olaparib] + CC(C)C[C@H](NC(=O)[C@H](Cc1ccccc1)NC(=O)c1cnccn1)B(O)O [Bortezomib] (partner 0.002 µM)
Procedure, shortened: as §1

Row | Cell Line | relative viability ([1]; first compound 0.01 µM) | relative viability ([1]; first compound 0.03162 µM) | relative viability ([1]; first compound 0.1 µM) | relative viability ([1]; first compound 0.3162 µM) | relative viability ([1]; first compound 1 µM) | relative viability ([2]; first compound 0.01 µM) | relative viability ([2]; first compound 0.03162 µM) | relative viability ([2]; first compound 0.1 µM) | relative viability ([2]; first compound 0.3162 µM) | relative viability ([2]; first compound 1 µM) | relative viability ([3]; first compound 0.08 µM) | relative viability ([3]; first compound 0.253 µM) | relative viability ([3]; first compound 2.53 µM) | relative viability ([3]; first compound 8 µM) | relative viability ([4]; first compound 0.08 µM) | relative viability ([4]; first compound 0.253 µM) | relative viability ([4]; first compound 2.53 µM) | relative viability ([4]; first compound 8 µM)
1 | NCI-H522 | 0.658 | 0.585 | 0.736 | 0.747 | 0.604 | 0.852 | 0.792 | 0.752 | 0.908 | 0.846 | 1.05 | 0.931 | 0.833 | 1.04 | – | – | – | –
2 | NCI-H661 | 0.703 | 0.761 | 0.741 | 0.81 | 0.737 | – | – | – | – | – | 0.954 | 0.871 | 0.901 | 0.795 | 1.06 | 0.745 | 0.703 | 0.582
3 | NCI-H727 | 0.462 | 0.565 | 0.647 | 0.518 | 0.737 | 0.566 | 0.568 | 0.567 | 0.433 | 0.661 | – | – | – | – | 0.844 | 0.829 | 0.709 | 0.514
4 | NCI-H1299 | 0.95 | 0.95 | 0.92 | 0.947 | 0.975 | – | – | – | – | – | – | – | – | – | 1.07 | 0.97 | 1.04 | 0.968
5 | NCI-H1395 | 0.458 | 0.452 | 0.5 | 0.487 | 0.428 | 0.381 | 0.372 | 0.429 | 0.43 | 0.397 | 0.8 | 0.565 | 0.564 | 0.497 | – | – | – | –
6 | NCI-H1563 | – | – | – | – | – | – | – | – | – | – | 0.91 | 0.76 | 0.834 | 0.686 | 0.876 | 0.881 | 0.896 | 0.692
7 | NCI-H1648 | – | 0.981 | 0.861 | 1.27 | 0.77 | – | 0.513 | 0.684 | 0.467 | 0.723 | 0.967 | 0.708 | – | 0.735 | – | – | – | –
8 | NCI-H1650 | 0.619 | 0.801 | 0.71 | 0.779 | 0.722 | – | – | – | – | – | 0.393 | 0.329 | 0.314 | 0.366 | 0.265 | 0.196 | 0.232 | 0.197
9 | NCI-H1703 | 0.389 | 0.757 | 0.528 | 0.414 | 0.463 | 0.157 | 0.172 | 0.126 | 0.116 | 0.125 | – | – | – | – | 0.367 | 0.301 | 0.445 | 0.417
10 | NCI-H1944 | 0.414 | 0.423 | 0.378 | 0.424 | 0.461 | 0.449 | 0.566 | 0.53 | 0.446 | 0.489 | 0.639 | 0.529 | 0.496 | 0.561 | – | – | – | –
11 | NCI-H2009 | 0.666 | 0.712 | 0.697 | 0.685 | 0.741 | – | – | – | – | – | 1.15 | 1.03 | 1.01 | 0.842 | 1.06 | 0.953 | 0.914 | 0.638
12 | NCI-H2023 | 0.449 | 0.498 | 0.521 | 0.408 | 0.451 | – | – | – | – | – | 0.215 | 0.231 | 0.241 | 0.156 | 1.13 | 0.884 | 0.931 | 0.675
13 | NCI-H2170 | 0.558 | 0.625 | 0.642 | 0.558 | 0.62 | 0.761 | 0.894 | 0.835 | 0.852 | 0.858 | 0.259 | 0.331 | 0.265 | 0.245 | – | – | – | –
14 | NCI-H2228 | 0.539 | 0.595 | 0.624 | 0.716 | 0.668 | – | – | – | – | – | 0.395 | 0.323 | 0.311 | 0.322 | 1.02 | 0.821 | 1.02 | 0.661
15 | NCI-H2342 | 0.427 | 0.406 | 0.429 | 0.418 | 0.435 | 0.465 | 0.504 | 0.483 | 0.441 | 0.575 | 0.806 | 0.751 | 0.753 | 0.761 | – | – | – | –
16 | SK-LU-1 | 0.504 | 0.438 | 0.451 | 0.477 | 0.405 | – | – | – | – | – | 1.12 | 0.865 | 0.866 | 0.635 | 1.33 | 1.08 | 1.23 | 1.19
17 | SK-MES-1 | 0.683 | 0.733 | 0.761 | 0.762 | 0.637 | – | – | – | – | – | 0.982 | 0.91 | 0.853 | 0.768 | – | – | – | –
18 | SW 900 | 0.792 | 0.814 | 0.831 | 1.06 | 0.863 | 0.54 | 0.627 | 0.616 | 0.663 | 0.617 | 0.502 | 0.461 | 0.456 | 0.457 | – | – | – | –
19 | SW 1573 | 0.44 | 0.459 | 0.542 | 0.483 | 0.383 | – | – | – | – | – | 0.903 | 0.899 | 0.779 | 0.597 | 1.03 | 0.987 | 0.769 | 0.619
20 | UMC-11 | 0.35 | 0.306 | 0.375 | 0.494 | 0.317 | – | – | – | – | – | 0.806 | 0.683 | 0.691 | 0.537 | 0.98 | 0.648 | 0.538 | 0.325
